# Measured values from publication PMC11831592, “Repurposing Linezolid in Conjunction with Histone Deacetylase Inhibitor Access in the Realm of Glioblastoma Therapies” (Journal of Medicinal Chemistry, 2025).
# Tests used:
# [1] = test system: PT#3-R GBM cells; assay: Orthotopic PT#3-R transplant model, survival and HE staining; type: in vivo, mouse
# Description: For orthotopic inoculation, CT-2A cells (1 × 10^5) or CT-2A-R (2 × 10^5) were suspended in 4 μL of DMEM and implanted into the brain of B6 mice. PT#3-R cells (5 × 10^5) were suspended in 4 μL of DMEM and implanted into the brain of SCID mice. After cell implantation, mice were monitored daily for survival, and their body weight was measured every 3 days starting from the seventh day. […] […] […] Upon the natural death of the mice, brains were extracted and entrusted to BioTools for sectioning and HE staining.
# [2] = test system: phospho-ATM, CtIP, RPA32, and RAD51 in PT#3-R GBM cells; assay: Western blot of DNA repair proteins; type: cell-based, human; conditions: 72 h
# Description: The experimental procedure was performed as described in our previous study.[41] On the day prior to the experiment, […] cells were seeded into each well of a 6-well plate. The following day, the cells were washed twice with PBS and treated with 10 μM compound 1. […] The antibody models and dilution ratios used are detailed in Table S1. Protein image collection and quantification were done by the ChemiDoc Touch Imaging System (Cat. No. 12676029, Bio-Rad Laboratories, Inc., CA, USA).
# [3] = test system: histones H3 and H4 in U87MGR GBM cells; assay: Western blot of histone H3 and H4 acetylation; type: cell-based, human; conditions: 10 μM, within 1 h
# Description: The experimental procedure was performed as described in our previous study.[41] On the day prior to the experiment, […] cells were seeded into each well of a 6-well plate. The following day, the cells were washed twice with PBS and treated with 10 μM compound 1. The acetylation status of histones H3 and H4, DNA repair, and protein stability assay were assessed at 0–24 h post-treatment. The antibody models and dilution ratios used are detailed in Table S1. Protein image collection and quantification were done by the ChemiDoc Touch Imaging System (Cat. No. 12676029, Bio-Rad Laboratories, Inc., CA, USA).
# [4] = target: T1, HDAC8 (Homo sapiens, UniProt Q9BY41); assay: HDAC enzyme inhibition assay, HDAC8; type: biochemical; conditions: 10-dose, 3-fold serial dilution starting at 10 μM
# T1 construct: purchased Reaction Biology Corporation, Malvern, PA (contract assay service)
# T1 sequence (Q9BY41 1-377): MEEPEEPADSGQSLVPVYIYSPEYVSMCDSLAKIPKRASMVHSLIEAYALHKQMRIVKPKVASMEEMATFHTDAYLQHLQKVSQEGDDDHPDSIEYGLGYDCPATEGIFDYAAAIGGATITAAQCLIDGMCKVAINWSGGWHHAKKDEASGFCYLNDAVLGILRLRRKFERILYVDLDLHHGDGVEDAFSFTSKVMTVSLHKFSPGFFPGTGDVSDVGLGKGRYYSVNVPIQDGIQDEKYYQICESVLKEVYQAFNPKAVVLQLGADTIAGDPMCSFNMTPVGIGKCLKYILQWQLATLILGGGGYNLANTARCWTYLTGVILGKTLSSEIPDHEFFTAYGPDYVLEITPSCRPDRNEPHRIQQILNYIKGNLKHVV
# Description: Enzyme inhibition assays were performed by the Reaction Biology Corporation, Malvern, PA (http://www.reactionbiology.com).
# [5] = test system: Primary Mouse Neuron; assay: CCK8 assay, primary culture neurons; type: cell-based
# Description: (§1) The human glioblastoma cell lines U87MG (HTB-14), T98G (CRL-1690), and A172 (CRL-1620) were provided by the American Type Culture Collection (Manassas, VA, USA). The patient-derived cell line PT#3 was purified under the approval of the Institutional Review Board of Taipei Medical University (TMU) (No. 201006011). The murine astrocytoma cell line CT-2A (SCC194) was purchased from Merch Millipore (MA, USA). TMZ-resistant cell lines were established as described previously.[40] All cell lines were cultured in Dulbecco’s modified Eagle’s medium basal medium (Cat# 10-013-CM, CORNING, MA, USA), supplemented with 10% fetal bovine serum (Cat# 12676029, Thermo Fisher Scientific, MA, USA), 100 units/mL penicillin, and 100 μg/mL streptomycin (Cat# 15140122, Thermo Fisher Scientific) at 37 °C in the environment of 95% air and 5% carbon dioxide and maintained resistant characteristic with […] of TMZ (Cat# HY-17364, MedChemExpress, NJ, USA). Primary cultured astrocytes and neurons were derived from E17 embryonic mice. […]
# (§2) Cell viability and drug cytotoxicity were determined by a CCK-8 kit (Cell Counting Kit-8, CK04-13, MD, USA) (CCK8, C0005, Target Molecule Corp., MA, USA) reagent. […] Finally, the OD was 450 nm absorbance and calculated for cell viability.
# [6] = test system: U87MG; assay: CCK8 cell proliferation assay, U87MG; type: cell-based; conditions: Homo sapiens, U-87 MG, CCK8, 72 h
# Description: (§3) Cell viability and drug cytotoxicity were determined by a CCK-8 kit (Cell Counting Kit-8, CK04-13, MD, USA) (CCK8, C0005, Target Molecule Corp., MA, USA) reagent. Cells were seeded 2 × 10^3 per well in the 96-well plate for 24 h, followed by treating at different concentrations of compounds for 72 h. Before the experiment, CCK8 was 10-fold diluted with the culture medium and then incubated with cells for 30 min. Finally, the OD was 450 nm absorbance and calculated for cell viability.
# [7] = test system: Primary Mouse Astrocyte; assay: CCK8 assay, primary culture astrocytes; type: cell-based
# Description: as §1, §2
# [8] = test system: PT#3; assay: CCK8 cell proliferation assay, PT#3; type: cell-based; conditions: Homo sapiens; PT#3, CCK8, 72 h
# Description: as §3
smiles,measurement,setting,value
"O=C(/C=C/c1ccc(CNC[C@H]2CN(c3ccc(N4CCOCC4)c(F)c3)C(=O)O2)cc1)NO [compound 1, (S,E)-3-(4-((((3-(3-Fluoro-4-morpholinophenyl)-2-oxooxazolidin-5-yl)methyl)ami-no)methyl)phenyl)-N-hydroxyacrylamide]",survival (Kaplan-Meier),"[1]; PT#3-R in SCID mice, 10 or 20 mg/kg with 10 mg/kg TMZ, intraperitoneal every 3 days from day 7",extend the survival rate
same,TMZ-resistant GBM cell growth in the brain (HE staining),"[1]; PT#3-R, post-mortem brain tissue sections",effective inhibition of TMZ-resistant GBM cell growth in the brain
same,"CtIP, RPA32 and RAD51 protein expression",[2],significant suppression
same,phosphorylation of ATM,[2],significant increase in the phosphorylation
same,acetylation in histones H3 and H4,[3],significant induction of acetylation
same,IC50,[4],0.447 µM
same,IC50,[5],65.9 ± 4 µM
same,IC50,[6],13.5 ± 0.54 µM
same,IC50,[7],143 ± 7.9 µM
same,IC50,[8],10.3 ± 0.52 µM
